Legend:
[1] = target: T1, ANO1 (anoctamin1, TMEM16A) (Homo sapiens, UniProt Q5XXA6); experiment: YFP fluorescence quenching assay in FRT cells expressing human ANO1; confirmed by short-circuit current (PC-3 cells IC50 […]); assay type: cell-based
T1 sequence (Q5XXA6 1-986): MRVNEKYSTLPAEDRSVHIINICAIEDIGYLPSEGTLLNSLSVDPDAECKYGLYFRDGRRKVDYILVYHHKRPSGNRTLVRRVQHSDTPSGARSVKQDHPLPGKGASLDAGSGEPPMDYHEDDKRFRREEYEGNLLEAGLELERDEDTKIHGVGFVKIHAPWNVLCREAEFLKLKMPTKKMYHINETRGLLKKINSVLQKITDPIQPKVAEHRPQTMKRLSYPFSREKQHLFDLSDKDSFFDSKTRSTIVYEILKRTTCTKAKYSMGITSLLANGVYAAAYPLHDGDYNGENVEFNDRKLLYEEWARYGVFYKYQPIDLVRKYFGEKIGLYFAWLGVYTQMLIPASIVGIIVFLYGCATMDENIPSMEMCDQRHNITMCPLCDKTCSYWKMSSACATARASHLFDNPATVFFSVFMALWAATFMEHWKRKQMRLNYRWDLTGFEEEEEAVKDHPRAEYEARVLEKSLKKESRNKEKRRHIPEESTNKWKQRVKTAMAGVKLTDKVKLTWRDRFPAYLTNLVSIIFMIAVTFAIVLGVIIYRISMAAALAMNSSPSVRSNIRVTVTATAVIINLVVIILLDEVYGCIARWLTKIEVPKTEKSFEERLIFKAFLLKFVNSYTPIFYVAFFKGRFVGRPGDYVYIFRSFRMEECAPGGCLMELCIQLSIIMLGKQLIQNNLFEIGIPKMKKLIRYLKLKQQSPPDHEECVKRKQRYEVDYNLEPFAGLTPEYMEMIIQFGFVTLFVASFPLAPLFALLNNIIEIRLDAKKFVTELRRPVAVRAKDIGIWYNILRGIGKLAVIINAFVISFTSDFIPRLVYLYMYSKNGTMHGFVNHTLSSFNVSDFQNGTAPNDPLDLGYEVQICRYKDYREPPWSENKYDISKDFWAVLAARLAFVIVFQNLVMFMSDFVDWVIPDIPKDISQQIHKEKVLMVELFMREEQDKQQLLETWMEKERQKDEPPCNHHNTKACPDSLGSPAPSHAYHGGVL

[2] = target: T2, ANO2 (Homo sapiens, UniProt Q9NQ90); experiment: YFP fluorescence quenching assay in FRT cells expressing human ANO2; assay type: cell-based
T2 sequence (Q9NQ90 1-998): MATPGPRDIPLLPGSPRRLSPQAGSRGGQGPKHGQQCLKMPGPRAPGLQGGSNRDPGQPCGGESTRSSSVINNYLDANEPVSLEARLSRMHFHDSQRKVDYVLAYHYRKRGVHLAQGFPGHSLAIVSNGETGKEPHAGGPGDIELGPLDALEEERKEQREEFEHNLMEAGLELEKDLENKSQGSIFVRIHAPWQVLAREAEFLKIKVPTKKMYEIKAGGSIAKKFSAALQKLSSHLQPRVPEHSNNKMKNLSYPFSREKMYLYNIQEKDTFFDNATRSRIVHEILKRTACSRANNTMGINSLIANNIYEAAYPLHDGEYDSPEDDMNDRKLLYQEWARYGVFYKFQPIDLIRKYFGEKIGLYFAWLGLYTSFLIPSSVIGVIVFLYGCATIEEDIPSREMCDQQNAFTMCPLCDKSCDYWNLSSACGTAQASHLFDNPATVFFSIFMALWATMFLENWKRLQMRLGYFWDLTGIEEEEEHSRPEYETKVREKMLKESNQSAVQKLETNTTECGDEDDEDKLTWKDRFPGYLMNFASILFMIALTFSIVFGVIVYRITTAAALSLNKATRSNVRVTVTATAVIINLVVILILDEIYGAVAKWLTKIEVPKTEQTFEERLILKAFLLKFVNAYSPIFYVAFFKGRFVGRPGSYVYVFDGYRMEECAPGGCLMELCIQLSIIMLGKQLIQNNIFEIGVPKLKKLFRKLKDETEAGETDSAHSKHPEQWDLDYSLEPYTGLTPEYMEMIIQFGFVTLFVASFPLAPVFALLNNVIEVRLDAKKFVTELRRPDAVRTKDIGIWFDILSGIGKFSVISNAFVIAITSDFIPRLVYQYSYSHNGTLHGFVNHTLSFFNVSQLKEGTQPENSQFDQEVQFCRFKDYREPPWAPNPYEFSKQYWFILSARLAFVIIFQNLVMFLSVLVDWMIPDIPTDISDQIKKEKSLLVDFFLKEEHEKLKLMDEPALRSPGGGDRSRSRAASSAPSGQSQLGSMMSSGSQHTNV

## C=CC1=C(C)C2=Cc3c(C=C)c(C)c4[n]3[Fe]([Cl])[n]3c(c(C)c(CCC(=O)O)c3=CC3=NC(=C4)C(C)=C3CCC(=O)O)=CC1=N2 [hemin]
[1]
  IC50: 510 nM
[2]
  IC50: 4090 nM

Reference: paper PMC11172662, “Anticancer Effect of Hemin through ANO1 Inhibition in Human Prostate Cancer Cells” (International Journal of Molecular Sciences, 2024)
